For data set [1], the system named is mice. As to the kind of experiment: Food intake in mice (acute, after fast / intra-peritoneal injection). In kind it is in vivo. Conditions: for food intake: other preclinical experiments, each compound alone.
Data set [2] has as its system POMC neurons. Nature of the data set: Electrophysiological activity of POMC neurons in brain slices from POMC-EGFP mice. Format: cell-based. On the procedure: The electrophysiological activity of Proopiomelanocortin (POMC) neurons in brain slices from POMC-EGFP mice are recorded. The POMC neurons in these mice are identified by the expression of green fluorescent protein (EGFP) in these, and only these, cells. The frequency of action potentials in these neurons are recorded using standard electrophysiological techniques. In particular loose cell attached patch configuration is used to determine action potential frequency, whilst minimally disturbing the cells.
The electrophysiological activity of Proopiomelanocortin (POMC) neurons in brain slices from POMC-EGFP mice are recorded. The POMC neurons in these mice are identified by the expression of green fluorescent protein (EGFP) in these, and only these, cells. The frequency of action potentials in these neurons are recorded using standard electrophysiological techniques. In particular, loose cell attached patch configuration is used to determine action potential frequency, whilst minimally disturbing the cells.

The nature of data set [3]: Rat-weight gain assay: rodent model of mirtazapine-induced weight gain. Conditions: addition to concomitant mirtazapine treatment; doses tbd. In kind it is in vivo, rats. On the procedure: We have developed a model to pre-clinically test the effects of mirtazapine on body weight gain. […] Initially, a dose of 30 mg/kg of zonisamide (bid) is used, but the dose in the experiment ranges from 20 mg/kg to 90 mg/kg (bid). […] Mirtazapine or setiptiline are used as solutions in minipumps. The concentration of the solution ranges between 0.1 μM to 10 mM. In some experiments, the concentration is calculated to provide a dose of about 1 mg/kg/day. In certain experiments, the concentration is 10 μM.
In a 4×3 design rats receive implants that secrete mirtazapine, or setiptiline, or vehicle. Some rats also receive co-treatment with saline, some receive zonisamide, some receive bupropion, and others receive co-treatment with zonisamide plus bupropion. In this way cohorts of 10 rats receive all possible combinations of the weight loss drug(s) with mirtazapine or setiptiline.
Female Sprague-Dawley rats weighing about 300 grams at the start of the experiment are used. Under isoflurane anesthesia, Alzet osmotic minipumps (2 ml2) are implanted subcutaneously between the shoulder blades. The rats are returned to their home cages after recovery. The minipumps deliver 5 μL per hour for 14 days. A range of doses of mirtazapine (from 0.1 to 20 mg/kg/day dissolved in DMSO/saline) are used. […] Food consumed and animal weights are recorded every 3 days, to minimize disruption of the animals.

Data set [4] in a line: Case study Example 13: zonisamide, paroxetine and risperidone. In kind it is in vivo, human. As for the experimental part:
They were therefore started on zonisamide 100 mg, incraesed to 200 mg. […] The dose was then increased to 300 mg and then to 600 mg.

A short description of data set [5]: Case study Example 14: zonisamide, olanzapine, valproate and bupropion. Format: in vivo, human. To be noted: for effect on weight gain resulting from olanzapine and valproate: summary of the case. As for the experimental part:
At this point, zonisamide was added to their medication regimen at 100 mg/day and the dose was increased to 200 mg/day after two weeks.

Data set [6] can be described thus: Rodent model of olanzapine-induced weight gain. To be noted: addition to concomitant olanzapine treatment (about 1.75 mg/kg/day); doses tbd. In kind it is in vivo, rats. As for the experimental part:
Rats receive implants that secrete olanzapine (or vehicle in control groups). Some also receive co-treatment with zonisamide; others get co-treatment with zonisamide plus bupropion. Initially, a dose of 30 mg/kg of zonisamide (bid) is used, but the dose in the experiment ranges from 20 mg/kg to 90 mg/kg (bid). […] Olanzapine is used as a solution in minipumps. The concentration of the solution ranges between 0.1 μM to 10 mM. In some experiments, the concentration is calculated to provide a dose of about 1.75 mg/kg/day. In certain experiments, the concentration is 10 μM.
Female Sprague-Dawley rats weighing about 300 grams at the start of the experiment are used. Under isoflurane anesthesia, Alzet osmotic minipumps (2 ml2) are implanted subcutaneously, between the shoulder blades. The rats are returned to their home cages after recovery. The minipumps deliver 5 μL per hour for 14 days. Olanzapine is dissolved in dH2O+10% dilute lactic acid. A pH of about 3.5 enables the olanzapine to dissolve completely and produce a golden solution. This pH level has no effect on the animals in either the drug groups or the vehicle group. The animals are housed individually and are supplied with standard laboratory chow. Food consumed and animal weights are recorded every 3 days, to minimize disruption of the animals.

The nature of data set [7]: Case study Example 12: zonisamide added to clonazepam, fluoxetine and lamotrogine. Format: in vivo, human. Conditions: person, bipolar disorder; zonisamide 100 mg qD added to clonazepam, fluoxetine, lamotrogine. As for the experimental part:
A person having biopolar disorder, Type I, had been treated for just over year by their psychiatrist using clonazepam 1 mg qHS, fluoxetine 20 mg qd, and lamotrogine 300 mg qD. One particular complaint was that they had “constant thoughts of eating”. Their psychiatrist started them on zonisamide 100 mg qD. […] The dose was continued and despite multiple stressors at home, they continued to do well on the treatment regimen.

The conditions of data set [8]: cited from earlier work.
Data set [9] concerns serotonin and dopamine synthesis. To be noted: cited from earlier work.
Data set [10] addresses dopamine D2 receptors (Homo sapiens, UniProt P14416). Conditions: cited from earlier work.

“Also recorded” adds a separate entry of the source. Like-named read-outs stand apart in the source and are kept apart here.

Sequence of dopamine D2 receptors (P14416 whole entry): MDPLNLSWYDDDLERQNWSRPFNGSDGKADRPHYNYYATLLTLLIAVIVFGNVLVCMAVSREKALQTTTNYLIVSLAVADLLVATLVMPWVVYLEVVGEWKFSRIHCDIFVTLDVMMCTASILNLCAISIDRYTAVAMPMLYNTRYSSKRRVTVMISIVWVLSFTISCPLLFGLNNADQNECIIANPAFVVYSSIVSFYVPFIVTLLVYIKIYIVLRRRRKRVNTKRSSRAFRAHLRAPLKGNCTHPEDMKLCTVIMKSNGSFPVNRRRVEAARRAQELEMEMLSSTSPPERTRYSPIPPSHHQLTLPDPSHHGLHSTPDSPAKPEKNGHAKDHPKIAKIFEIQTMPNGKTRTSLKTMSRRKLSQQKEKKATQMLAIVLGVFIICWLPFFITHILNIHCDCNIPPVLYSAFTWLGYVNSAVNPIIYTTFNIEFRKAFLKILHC

`CC(NC(C)(C)C)C(=O)c1cccc(Cl)c1` (stereo not shown) [bupropion]: the “food intake after intra-peritoneal injection” value in [1] (mice) is given as “pronounced effects on food intake”. The food intake result in [1] is listed as “inhibit food intake”. For the same molecule, in [2], the “electrophysiological activity of POMC neurons” value was “increase the electrophysiological activity of POMC neurons”. For the same molecule, in data set [3], the “weight gain associated with mirtazapine” value was “decreases the weight gain associated with mirtazapine”. Also, in data set [4] (trial of bupropion alone, patient on paroxetine and risperidone), the weight loss result is “did not cause significant weight loss”. This molecule returned a weight lost in data set [5] (after 6 months, bupropion 150 mg/day added to olanzapine and valproate) of 23.6 lbs. For the same molecule, the adverse effect reported entry in data set [5] (bupropion dose raised to 300 mg/day) was “feeling hyperactive”. In addition, the “adverse effect limiting higher dose” value in data set [5] (higher dose (300-400 mg/day) of bupropion) was “precipitation of hypomanic symptoms”. This molecule had a weight regained in data set [5] (over the next 10 months while continuing bupropion) of 10.6 lbs. Further, the “effect on weight gain resulting from olanzapine and valproate” value in data set [5] is “helped in decreasing weight gain”.

Turning to `NS(=O)(=O)Cc1noc2ccccc12` [zonisamide], in [1] (mice), the “food intake after intra-peritoneal injection” value is “pronounced effects on food intake” and the “food intake over 24 hrs after intra-peritoneal injection” value is given as “pronounced effects on food intake”. Further, the food intake entry in data set [1] is “inhibit food intake”. Besides, the “electrophysiological activity of POMC neurons” value in data set [2] is on record as “increase the electrophysiological activity of POMC neurons”. Further, the “weight gain associated with mirtazapine” value in [3] was “decreases the weight gain associated with mirtazapine”. Further, in data set [6], the “weight gain associated with olanzapine” value is “decrease the weight gain associated with olanzapine”. In data set [7], the craving for food result was “significantly reduced their craving for food” and the weight gain entry is listed as “prevented weight gain”. In [4] (in 3 weeks, zonisamide 100 mg increased to 200 mg), this molecule showed a weight lost of 12 pounds. For the same molecule, the “weight relative to baseline” value in data set [4] (in 5 months, zonisamide increased to 300 mg and then 600 mg) was “their weight returned to baseline”. For the same molecule, in data set [5] (over the next 4 months, zonisamide 100 then 200 mg/day added to bupropion, olanzapine, valproate), the weight lost was 15 lbs. Moreover, the “effect on weight gain resulting from olanzapine and valproate” value in [5] is listed as “helped in further offsetting weight gain”. Moreover, in [5] (zonisamide 100 then 200 mg/day added to bupropion, olanzapine, valproate), the adverse effects entry is recorded as “no adverse effects”. Besides, the “weight reducing effects in humans” value in data set [8] (Gadde et al, 2003, 2001) is “well demonstrated in humans”. Further, in [8] (compared with placebo treatment, Gadde et al, JAMA 2003), the “tolerability / side effects” value is on record as “well tolerated; also recorded: fatigue being the only side effect that occurred more frequently than with placebo treatment”. For the same molecule, the weight loss entry in [8] (patients presenting with primary obesity, Gadde et al, JAMA 2003) is “significant weight loss”. Further, in data set [9], the “serotonin and dopamine synthesis rates” value was “increases serotonin and dopamine synthesis rates”. Further, the “stimulation of dopamine D2 receptors” value in data set [10] is given as “stimulates dopamine D2 receptors”.

Values taken from patent publication US7429580B2, “Compositions of an anticonvulsant and an antipsychotic drug and methods of using the same for affecting weight loss” (Orexigen Therapeutics, Inc., priority 2004, dated 2008).
